Like-named read-outs stand apart in the source and are kept apart here.
Tests used:
[1] = molecular target: T1, SHP2 (full length) (Homo sapiens, UniProt Q06124); assay: Phosphatase assay (PTPase assay) with DiFMUP substrate; format: biochemical; conditions: SHP2 activated with SHP2 activating peptide, DiFMUP 80 μM, 2 hours, fluorescence
T1 construct: SHP2 (full length, diluted to 100 pM final concentration in reaction buffer, BPS bioscience, US); purchased BPS bioscience, US
T1 sequence (Q06124 1-593): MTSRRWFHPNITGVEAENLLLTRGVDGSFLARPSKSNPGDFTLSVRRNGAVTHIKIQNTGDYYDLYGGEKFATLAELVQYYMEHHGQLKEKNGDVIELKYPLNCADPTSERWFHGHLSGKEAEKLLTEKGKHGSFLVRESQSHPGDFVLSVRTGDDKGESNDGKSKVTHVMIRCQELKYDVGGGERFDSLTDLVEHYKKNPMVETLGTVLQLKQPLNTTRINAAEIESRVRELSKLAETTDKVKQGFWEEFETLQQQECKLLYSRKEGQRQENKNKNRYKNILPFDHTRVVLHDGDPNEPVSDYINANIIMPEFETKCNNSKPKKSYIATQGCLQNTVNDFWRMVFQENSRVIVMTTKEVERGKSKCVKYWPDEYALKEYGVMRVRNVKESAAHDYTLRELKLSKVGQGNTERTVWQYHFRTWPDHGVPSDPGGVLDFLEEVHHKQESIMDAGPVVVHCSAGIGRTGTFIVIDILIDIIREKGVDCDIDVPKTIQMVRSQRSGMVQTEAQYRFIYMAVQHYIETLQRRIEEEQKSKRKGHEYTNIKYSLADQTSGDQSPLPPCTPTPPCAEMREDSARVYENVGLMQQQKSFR

[2] = system: phospho-ERK in MIA PaCa2 or H358 cells; assay: Phospho-ERK assay (AlphaLisa); format: cell-based
[3] = 1.5 h, MIA PaCa2 or H358 cells, compound incubated 1.5 hours, read-out: IC50 (p-ERK)
[4] = MIA PaCa2 or H358 cells, compound incubated 1.5 hours, read-out: IC50 (p-ERK)
[5] = 1.5 h, read-out: IC50 (p-ERK, nM)

Row | Structure (SMILES) | IC50 ([1]; read-out: IC50 (PTPase aS say)) | IC50 [2, 3] | IC50 [2, 4] | IC50 ([1]; IC50 (PTPase aS say, nM)) | IC50 [2, 5]
1 | CC(C)OCCn1cnc2ccc(Sc3cnc(N4CCC5(CC4)CO[C@@H](C)[C@H]5N)cn3)c(Cl)c2c1=O [Example 116, 6-((5-(3S,4S)-4-amino-3-methyl-2-oxa-8-azaspiro[4,5]decan-8-yl)pyrazin-2-yl)thio)-5-chloro-(3-(2-isopropoxyethyl)quinazolin-4(3H)-one] | < 3 nM | < 45 nM | – | – | –
2 | C[C@@H]1OCC2(CCN(c3cnc(Sc4ccc5nc(Cc6ccccc6)[nH]c5c4Cl)cn3)CC2)[C@@H]1N [Example 50, (3S,4S)-8-(5-((2-benzyl-7-chloro-1H-benzo[d]imidazol-6-yl)thio)pyrazin-2-yl)-3-methyl-2-oxa-8-azaspiro[4.5]decan-4-amine] | 3 to 100 nM | 45 to 1500 nM | – | – | –
3 | CC(N)CN1CCN(c2nc(N)c(Sc3cccc(Cl)c3Cl)c(=O)n2C)CC1 (stereo not drawn) [Example 202, 6-amino-2-(4-(2-aminopropyl)piperazin-1-yl)-5-((2,3-dichlorophenyl)thio)-3-methylpyrimidin-4(3H)-one] | > 100 nM | > 1500 nM | – | – | –
4 | CC(=O)NCCn1cnc2ccc(Sc3cnc(N4CCC5(CC4)CO[C@@H](C)[C@H]5N)cn3)c(Cl)c2c1=O [Example 115] | < 3 nM | < 45 nM | – | – | –
5 | C[C@@H]1OCC2(CCN(c3cnc(Sc4ccc5c(c4Cl)C(=O)N(Cc4ccccc4)C5)cn3)CC2)[C@@H]1N [Example 133, 6-((5-((3S,4S)-4-amino-3-methyl-2-oxa-8-azaspiro[4,5]decan-8-yl)-pyrazin-2-yl)thio)-2-benzyl-7-chloroisoindolin-1-one] | 3 to 100 nM | 45 to 1500 nM | – | – | –
6 | COCCn1cnc2ccc(Sc3n[nH]c4nc(N5CCC6(CC5)CO[C@@H](C)[C@H]6N)cnc34)c(Cl)c2c1=O [Example 178, 6-((6-((3S,4S)-4-amino-3-methyl-2-oxa-8-azaspiro[4.5]decan-8-yl)-1H-pyrazolo[3,4-b]pyrazin-3-yl)thio)-5-chloro-3-(2-methoxyethyl)quinazolin-4(3H)-one] | < 3 nM | – | < 45 nM | – | –
7 | C[C@@H]1OCC2(CCN(c3cnc(Sc4ccc5ncn(CCOC(F)(F)F)c(=O)c5c4Cl)cn3)CC2)[C@@H]1N [Example 96, 6-((5-((3S,4S)-4-amino-3-methyl-2-oxa-8-azaspiro[4.5]decan-8-yl)pyrazin-2-yl)thio)-5-chloro-3-(2-(trifluoromethoxy)ethyl)quinazolin-4(3H)-one] | 3 to 100 nM | < 45 nM | – | – | –
8 | COCCn1cnc2ccc(Sc3ncc(N4CCC5(CC4)Cc4scnc4[C@H]5N)nc3N)c(Cl)c2c1=O [Example 167, (S)-6-((3-amino-5-(4-amino-4,6-dihydrospiro[cyclopenta[d]thiazole-5,4′-piperidin]-1′-yl)pyrazin-2-yl)thio)-5-chloro-3-(2-methoxyethyl)quinazolin-4(3H)-one] | < 3 nM | 45 to 1500 nM | – | – | –
9 | COCCCn1cnc2ccc(Sc3cnc(N4CCC5(CC4)CO[C@@H](C)[C@H]5N)cn3)c(Cl)c2c1=O [Example 94, 6-((5-((3S,4S)-4-amino-3-methyl-2-oxa-8-azaspiro[4.5]decan-8-yl)pyrazin-2-yl)thio)-5-chloro-3-(3-methoxypropyl)quinazolin-4(3H)-one] | < 3 nM | > 1500 nM | – | – | –
10 | COCCn1cnc2ccc(Sc3cnc(N4CCC5(CC4)Cc4nc(Cl)sc4[C@H]5N)cn3)c(Cl)c2c1=O [Example 161, 6-[5-[(6S)-6-amino-2-chloro-spiro[4,6-dihydrocyclopenta[d]thiazole-5,4′-piperidin]-1′-yl]pyrazin-2-yl]sulfanyl-5-chloro-3-(2-methoxyethyl)quinazolin-4-one] | < 3 nM | < 45 nM | – | – | –
11 | C[C@@H]1OCC2(CCN(c3cnc(Sc4ccc5ncn(Cc6ccnc(C#N)c6)c(=O)c5c4Cl)cn3)CC2)[C@@H]1N [Example 71, 4-((6-((5-((3S,4S)-4-amino-3-methyl-2-oxa-8-azaspiro[4.5]decan-8-yl)pyrazin-2-yl)thio)-5-chloro-4-oxoquinazolin-3(4H)-yl)methyl)picolinonitrile] | < 3 nM | < 45 nM | – | – | –
12 | COCCn1cnc2ccc(Sc3ccc(N4CCC5(CC4)CO[C@@H](C)[C@H]5N)cn3)c(Cl)c2c1=O [Example 181, 6-((5-((3S,4S)-4-amino-3-methyl-2-oxa-8-azaspiro[4.5]decan-8-yl)pyridin-2-yl)thio)-5-chloro-3-(2-methoxyethyl)quinazolin-4(3H)-one] | 3 to 100 nM | – | 45 to 1500 nM | – | –
13 | COCCn1cnc2ccc(Sc3nc(C(N)=O)c(N4CCC5(CC4)CO[C@@H](C)[C@H]5N)nc3N)c(Cl)c2c1=O [Example 154, 5-amino-3-[(3S,4S)-4-amino-3-methyl-2-oxa-8-azaspiro[4.5]decan-8-yl]-6-[5-chloro-3-(2-methoxyethyl)-4-oxo-quinazolin-6-yl]sulfanyl-pyrazine-2-carboxamide] | 3 to 100 nM | 45 to 1500 nM | – | – | –
14 | COc1cccc(Cc2nc3ccc(Sc4cnc(N5CCC6(CC5)CO[C@@H](C)[C@H]6N)cn4)c(Cl)c3[nH]2)c1 [Example 135] | > 100 nM | > 1500 nM | – | – | –
15 | Cc1nc2ccc(Sc3cnc(N4CCC(C)(CN)CC4)cn3)c(Cl)c2c(=O)n1Cc1ccccc1 [Example 23, 6-((5-(4-(aminomethyl)-4-methylpiperidin-1-yl)pyrazin-2-yl)thio)-3-benzyl-5-chloro-2-methylquinazolin-4(3H)-one] | 3 to 100 nM | 45 to 1500 nM | – | – | –
16 | CC1(CN)CCN(c2cnc(Sc3ccc4ncn(Cc5cccc(S(=O)(=O)F)c5)c(=O)c4c3Cl)cn2)CC1 [Example 16, 3-((6-((5-(4-(aminomethyl)-4-methylpiperidin-1-yl)pyrazin-2-yl)thio)-5-chloro-4-oxoquinazolin-3(4H)-yl)methyl)benzenesulfonyl fluoride] | – | – | – | < 3 nM | 45 to 1500 nM
17 | N[C@@H]1c2cccnc2CC12CCN(c1cnc(Sc3ccc4ncn(Cc5ccccc5)c(=O)c4c3Cl)cn1)CC2 [Example 102, (S)-6-((5-(5-amino-5,7-dihydrospiro[yclopenta[b]pyridine-6,4′-piperidin]-1′-yl)pyrazin-2-yl)thio)-3-benzyl-5-chloroquinazolin-4(3H)-one] | < 3 nM | < 45 nM | – | – | –
18 | COCCn1cnc2ccc(Sc3nc(C(C)=O)c(N4CCC5(CC4)CO[C@@H](C)[C@H]5N)nc3N)c(Cl)c2c1=O [Example 155] | 3 to 100 nM | > 1500 nM | – | – | –
19 | NC(=O)c1nc(Sc2ccc3ncn(CC4CCOCC4)c(=O)c3c2Cl)cnc1N1CCC2(CC1)Cc1ncsc1[C@H]2N [Example 174, (S)-3-(6-amino-4,6-dihydrospiro[cyclopenta[d]thiazole-5,4′-piperidin]-1′-yl)-6-((5-chloro-4-oxo-3-((tetrahydro-2H-pyran-4-yl)methyl)-3,4-dihydroquinazolin-6-yl)thio)pyrazine-2-carboxamide] | < 3 nM | < 45 nM | – | – | –
20 | C[C@@H]1OCC2(CCN(c3cnc(Sc4ccc5ncn(CCC(N)=O)c(=O)c5c4Cl)cn3)CC2)[C@@H]1N [Example 98, 3-(6-((5-((3S,4S)-4-amino-3-methyl-2-oxa-8-azaspiro[4.5]decan-8-yl)pyrazin-2-yl)thio)-5-chloro-4-oxoquinazolin-3(4H)-yl)propanamide] | 3 to 100 nM | 45 to 1500 nM | – | – | –
21 | COCCn1cnc2ccc(Sc3cnc(N4CCC5(CC4)CO[C@@H](C)[C@H]5N)nn3)c(Cl)c2c1=O [Example 183, 6-((3-((3S,4S)-4-amino-3-methyl-2-oxa-8-azaspiro[4.5]decan-8-yl)-1,2,4-triazin-6-yl)thio)-5-chloro-3-(2-methoxyethyl)quinazolin-4(3H)-one] | – | – | > 1500 nM | – | –
22 | CC1(N)CCN(c2cnc(-c3cccc(Cl)c3Cl)c(N)n2)CC1 [SHP099, 6-(4-amino-4-methylpiperidin-1-yl)-3-(2,3-dichlorophenyl)pyrazin-2-amine, reference compound] | – | – | – | – | 45 to 1500 nM
23 | Cc1nc2ccc(Sc3cnc(N4CCC(C)(CN)CC4)cn3)c(Cl)c2c(=O)n1Cc1cccc(S(=O)(=O)F)c1 [Example 21, 3-((6-((5-(4-(aminomethyl)-4-methylpiperidin-1-yl)pyrazin-2-yl)thio)-5-chloro-2methyl-4-oxoquinazolin-3(4H)-yl)methyl)benzenesulfonyl fluoride] | – | – | 45 to 1500 nM | – | –
24 | C[C@@H]1OCC2(CCN(c3cnc(Sc4ccnc(N)c4Cl)c(N)n3)CC2)[C@@H]1N [TNO155, (3S,4S)-8-(6-amino-5-((2-amino-3-chloropyridin-4-yl)thio)pyrazin-2-yl)-3-methyl-2-oxa-8-azaspiro[4.5]decan-4-amine, reference compound] | – | – | < 45 nM | – | –
25 | C[C@@H]1OCC2(CCN(c3cnc(Sc4ccc5ncn(CCO)c(=O)c5c4Cl)cn3)CC2)[C@@H]1N [Example 58, 6-((5-((3S,4S)-4-amino-3-methyl-2-oxa-8-azaspiro[4.5]decan-8-yl)pyrazin-2-yl)thio)-5-chloro-3-(2-hydroxyethyl)quinazolin-4(3H)-one] | 3 to 100 nM | – | – | – | –

Source: patent US12029739B2, “SHP2 inhibitor and use thereof” (KANAPH THERAPEUTICS INC., priority 2021, dated 2024)
